Results reported in ChEMBL document CHEMBL3286253, “Design, synthesis, and structure-activity relationship studies of novel thioether pleuromutilin derivatives as potent antibacterial agents” (J Med Chem, 2014).
≈ marks a conversion by molar mass, not a printed value.

What was measured:
[1] = tested on: Staphylococcus epidermidis; test: Antibacterial activity against methicillin-resistant Staphylococcus epidermidis after 16 hrs by agar dilution method; assay type: functional
[2] = tested on: Streptococcus pneumoniae; test: Antibacterial activity against penicillin-resistant Streptococcus pneumoniae after 16 hrs by agar dilution method; assay type: functional
[3] = tested on: Staphylococcus aureus; test: Antibacterial activity against Staphylococcus aureus […] after 16 hrs by agar dilution method; assay type: functional
[4] = tested on: Staphylococcus aureus; test: Antibacterial activity against methicillin-sensitive Staphylococcus aureus after 16 hrs by agar dilution method; assay type: functional
[5] = tested on: Staphylococcus aureus; test: Antibacterial activity against methicillin-resistant Staphylococcus aureus after 16 hrs by agar dilution method; assay type: functional
[6] = tested on: Staphylococcus epidermidis; test: Antibacterial activity against methicillin-sensitive Staphylococcus epidermidis after 16 hrs by agar dilution method; assay type: functional
[7] = biological target: Cytochrome P450 2C19 (Homo sapiens, UniProt P33261); test: Inhibition of CYP2C19 in human liver microsomes using mephenytoin as substrate after 15 mins by LC/MS/MS analysis
[8] = biological target: Cytochrome P450 2D6 (Homo sapiens, UniProt P10635); test: Inhibition of CYP2D6 in human liver microsomes using dextromethorphan as substrate after 15 mins by LC/MS/MS analysis
[9] = Elimination half life in Sprague-Dawley rat at 2 mg/kg, iv administered as cassette dosing; assay type: ADME, organism-based; parameters: dose 2 mg/kg, route intravenous; conditions: in vivo, read-out: beta t1/2 (converted)
[10] = Clearance in Sprague-Dawley rat at 2 mg/kg, iv administered as cassette dosing; assay type: ADME, organism-based; parameters: dose 2 mg/kg, route intravenous; conditions: in vivo
[11] = Mean residence time in Sprague-Dawley rat at 2 mg/kg, iv administered as cassette dosing; assay type: ADME, organism-based; parameters: dose 2 mg/kg, route intravenous; conditions: in vivo
[12] = Volume of distribution at steady state in Sprague-Dawley rat at 2 mg/kg, iv administered as cassette dosing; assay type: ADME, organism-based; parameters: dose 2 mg/kg, route intravenous; conditions: in vivo, read-out: Vdss
[13] = biological target: Cytochrome P450 2C9 (Homo sapiens, UniProt P11712); test: Inhibition of CYP2C9 in human liver microsomes using tolbutamide as substrate after 15 mins by LC/MS/MS analysis
[14] = biological target: T1, Cytochrome P450 1A2 (Homo sapiens, UniProt P05177); test: Inhibition of CYP1A2 in human liver microsomes using phenacetin as substrate after 15 mins by LC/MS/MS analysis
T1 sequence (P05177 whole entry): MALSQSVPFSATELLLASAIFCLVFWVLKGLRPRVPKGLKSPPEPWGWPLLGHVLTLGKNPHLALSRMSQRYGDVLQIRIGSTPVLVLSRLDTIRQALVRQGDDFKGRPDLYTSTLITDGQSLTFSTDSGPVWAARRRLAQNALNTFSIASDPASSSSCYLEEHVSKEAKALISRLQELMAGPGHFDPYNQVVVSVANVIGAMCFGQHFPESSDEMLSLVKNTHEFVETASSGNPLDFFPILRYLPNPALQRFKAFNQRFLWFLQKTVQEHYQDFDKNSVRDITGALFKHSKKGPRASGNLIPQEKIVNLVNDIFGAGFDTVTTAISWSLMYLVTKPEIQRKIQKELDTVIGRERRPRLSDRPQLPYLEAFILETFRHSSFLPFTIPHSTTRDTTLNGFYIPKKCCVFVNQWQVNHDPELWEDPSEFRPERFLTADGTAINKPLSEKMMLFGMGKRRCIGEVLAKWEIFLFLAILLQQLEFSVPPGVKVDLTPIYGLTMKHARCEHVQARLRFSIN

[15] = AUC (0 to t) in Sprague-Dawley rat at 2 mg/kg, iv administered as cassette dosing; assay type: ADME, organism-based; parameters: dose 2 mg/kg, route intravenous; conditions: plasma
[16] = biological target: T2, Cytochrome P450 3A4 (Homo sapiens, UniProt P08684); test: Inhibition of CYP3A4 in human liver microsomes using testosterone as substrate after 15 mins by LC/MS/MS analysis
[17] = biological target: T2, Cytochrome P450 3A4; test: Inhibition of CYP3A4 in human liver microsomes using midazolam as substrate after 15 mins by LC/MS/MS analysis
[18] = tested on: Staphylococcus aureus; test: Antibacterial activity against of methicillin-sensitive Staphylococcus aureus ATCC 19636 infected in iv dosed mouse assessed as host survival administered 1 hr after infection measured after 48 hrs; assay type: functional; conditions: ATCC 19636, iv
[19] = tested on: Staphylococcus aureus; test: Antibacterial activity against of methicillin-sensitive Staphylococcus aureus ATCC 19636 infected in iv dosed mouse administered 1 hr after infection measured after 48 hrs; assay type: functional

T2 sequence (P08684 whole entry): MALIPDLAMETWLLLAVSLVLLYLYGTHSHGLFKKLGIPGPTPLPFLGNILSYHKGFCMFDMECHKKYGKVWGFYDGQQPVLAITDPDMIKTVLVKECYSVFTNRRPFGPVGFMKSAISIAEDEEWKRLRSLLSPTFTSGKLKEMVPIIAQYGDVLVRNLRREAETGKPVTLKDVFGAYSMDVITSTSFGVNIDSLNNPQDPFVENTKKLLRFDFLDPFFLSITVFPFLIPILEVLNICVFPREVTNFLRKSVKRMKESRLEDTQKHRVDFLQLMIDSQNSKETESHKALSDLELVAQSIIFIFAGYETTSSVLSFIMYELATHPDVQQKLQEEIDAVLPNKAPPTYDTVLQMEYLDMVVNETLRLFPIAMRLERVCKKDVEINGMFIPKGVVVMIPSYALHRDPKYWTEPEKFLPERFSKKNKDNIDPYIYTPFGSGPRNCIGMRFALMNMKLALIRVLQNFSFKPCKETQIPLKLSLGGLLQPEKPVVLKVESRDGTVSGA
Chain of Cytochrome P450 2D6 (P10635 whole entry): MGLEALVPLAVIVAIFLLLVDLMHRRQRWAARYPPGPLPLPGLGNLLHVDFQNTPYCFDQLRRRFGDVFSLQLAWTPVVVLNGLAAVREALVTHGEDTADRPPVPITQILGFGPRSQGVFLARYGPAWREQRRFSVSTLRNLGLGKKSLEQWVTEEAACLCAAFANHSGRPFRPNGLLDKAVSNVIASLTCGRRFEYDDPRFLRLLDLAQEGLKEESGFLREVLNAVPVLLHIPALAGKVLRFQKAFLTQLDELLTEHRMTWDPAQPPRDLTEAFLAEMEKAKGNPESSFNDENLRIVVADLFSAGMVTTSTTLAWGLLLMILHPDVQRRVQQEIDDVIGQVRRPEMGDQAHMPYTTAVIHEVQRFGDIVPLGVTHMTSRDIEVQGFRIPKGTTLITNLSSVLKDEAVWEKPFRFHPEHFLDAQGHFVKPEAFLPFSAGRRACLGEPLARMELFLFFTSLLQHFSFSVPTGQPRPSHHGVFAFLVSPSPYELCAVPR
Chain of Cytochrome P450 2C9 (P11712 whole entry): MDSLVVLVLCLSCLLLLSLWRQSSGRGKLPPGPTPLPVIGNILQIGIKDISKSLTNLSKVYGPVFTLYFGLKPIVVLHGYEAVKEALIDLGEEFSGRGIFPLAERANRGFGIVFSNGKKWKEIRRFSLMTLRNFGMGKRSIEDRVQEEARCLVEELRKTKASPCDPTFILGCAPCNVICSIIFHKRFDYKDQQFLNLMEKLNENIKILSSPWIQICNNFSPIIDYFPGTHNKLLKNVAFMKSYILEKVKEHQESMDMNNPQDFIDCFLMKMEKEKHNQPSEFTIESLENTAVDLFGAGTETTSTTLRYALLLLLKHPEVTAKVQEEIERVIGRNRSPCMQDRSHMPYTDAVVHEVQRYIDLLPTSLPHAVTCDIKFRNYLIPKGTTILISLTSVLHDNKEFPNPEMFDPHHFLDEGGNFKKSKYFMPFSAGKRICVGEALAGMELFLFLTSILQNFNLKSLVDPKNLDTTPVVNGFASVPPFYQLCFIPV
Chain of Cytochrome P450 2C19 (P33261 whole entry): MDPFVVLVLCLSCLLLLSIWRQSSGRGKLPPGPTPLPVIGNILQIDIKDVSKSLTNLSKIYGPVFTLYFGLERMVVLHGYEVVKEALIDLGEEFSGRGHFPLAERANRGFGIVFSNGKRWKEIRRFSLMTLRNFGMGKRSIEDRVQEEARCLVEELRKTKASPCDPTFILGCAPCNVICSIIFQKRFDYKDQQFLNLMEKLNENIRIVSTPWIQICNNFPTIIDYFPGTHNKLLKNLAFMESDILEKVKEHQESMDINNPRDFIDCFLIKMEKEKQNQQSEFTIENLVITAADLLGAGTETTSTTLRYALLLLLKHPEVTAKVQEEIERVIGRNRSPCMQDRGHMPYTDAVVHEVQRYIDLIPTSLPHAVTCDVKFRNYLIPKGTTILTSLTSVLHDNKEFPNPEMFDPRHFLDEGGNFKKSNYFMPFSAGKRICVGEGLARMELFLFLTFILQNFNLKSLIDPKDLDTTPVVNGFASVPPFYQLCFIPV

Row | SMILES | MIC [1] [µg/mL] | MIC [2] [µg/mL] | MIC [3] [µg/mL] | MIC [4] [µg/mL] | MIC [5] [µg/mL] | MIC [6] [µg/mL] | IC50 [7] [µM] | IC50 [8] [µM] | half-life [9] [h] | clearance [10] [mL/min/kg] | MRT [11] [h] | Vd [12] [L/kg] | IC50 [13] [µM] | IC50 [14] [µM] | AUC(0-t) [15] [ng·h/mL] | IC50 [16] [µM] | IC50 [17] [µM] | ED50 [18] [mg/kg] | MIC [19] [µg/mL]
1 | C=C[C@]1(C)C[C@@H](OC(=O)CSc2cncc(NC(=O)CN3CCCC3)c2)[C@]2(C)[C@H](C)CC[C@]3(CCC(=O)[C@H]32)[C@@H](C)[C@@H]1O | 0.125 (≈ 0.209 µM) | 0.031 (≈ 0.0519 µM) | 0.125 (≈ 0.209 µM) | 0.125 (≈ 0.209 µM) | 0.125 (≈ 0.209 µM) | 0.031 (≈ 0.0519 µM) | – | – | – | – | – | – | – | – | – | – | – | – | –
2 | C=C[C@]1(C)C[C@@H](OC(=O)CSc2cncc(NC(=O)CN3CCCCC3)c2)[C@]2(C)[C@H](C)CC[C@]3(CCC(=O)[C@H]32)[C@@H](C)[C@@H]1O | 0.125 (≈ 0.204 µM) | 0.125 (≈ 0.204 µM) | 0.125 (≈ 0.204 µM) | 0.125 (≈ 0.204 µM) | 0.25 (≈ 0.409 µM) | 0.125 (≈ 0.204 µM) | – | – | – | – | – | – | – | – | – | – | – | – | –
3 | C=C[C@]1(C)C[C@@H](OC(=O)CSc2cncc(NC(=O)CN3CCC[C@H]3CN)c2)[C@]2(C)[C@H](C)CC[C@]3(CCC(=O)[C@H]32)[C@@H](C)[C@@H]1O | 0.5 (≈ 0.798 µM) | 0.063 (≈ 0.101 µM) | 0.25 (≈ 0.399 µM) | 0.5 (≈ 0.798 µM) | 1 (≈ 1.6 µM) | 0.5 (≈ 0.798 µM) | – | – | – | – | – | – | – | – | – | – | – | – | –
4 | C=C[C@]1(C)C[C@@H](OC(=O)CSc2cncc(NC(=O)CN3CCC[C@H]3CO)c2)[C@]2(C)[C@H](C)CC[C@]3(CCC(=O)[C@H]32)[C@@H](C)[C@@H]1O | 0.125 (≈ 0.199 µM) | 0.125 (≈ 0.199 µM) | 0.063 (≈ 0.1 µM) | 0.125 (≈ 0.199 µM) | 0.125 (≈ 0.199 µM) | 0.125 (≈ 0.199 µM) | – | – | – | – | – | – | – | – | – | – | – | – | –
5 | C=C[C@]1(C)C[C@@H](OC(=O)CSc2cncc(NC(=O)CN3CC[C@H](O)C3)c2)[C@]2(C)[C@H](C)CC[C@]3(CCC(=O)[C@H]32)[C@@H](C)[C@@H]1O | 0.125 (≈ 0.204 µM) | 0.125 (≈ 0.204 µM) | 0.125 (≈ 0.204 µM) | 0.125 (≈ 0.204 µM) | 0.125 (≈ 0.204 µM) | 0.125 (≈ 0.204 µM) | – | – | – | – | – | – | – | – | – | – | – | – | –
6 | C=C[C@]1(C)C[C@@H](OC(=O)CSc2cncc(NC(=O)CN3CCCC(CO)C3)c2)[C@]2(C)[C@H](C)CC[C@]3(CCC(=O)[C@H]32)[C@@H](C)[C@@H]1O (stereo partly drawn) | 0.063 (≈ 0.0981 µM) | 0.063 (≈ 0.0981 µM) | 0.063 (≈ 0.0981 µM) | 0.063 (≈ 0.0981 µM) | 0.063 (≈ 0.0981 µM) | 0.063 (≈ 0.0981 µM) | – | – | – | – | – | – | – | – | – | – | – | – | –
7 | C=C[C@]1(C)C[C@@H](OC(=O)CSc2cncc(NC(=O)CN3CCCC(O)C3)c2)[C@]2(C)[C@H](C)CC[C@]3(CCC(=O)[C@H]32)[C@@H](C)[C@@H]1O (stereo partly drawn) | 0.063 (≈ 0.1 µM) | 0.063 (≈ 0.1 µM) | 0.063 (≈ 0.1 µM) | 0.063 (≈ 0.1 µM) | 0.063 (≈ 0.1 µM) | 0.063 (≈ 0.1 µM) | 12.4 | > 25 | 0.67 | 65 | 0.48 | 1.9 | > 25 | > 25 | 522 | 1.24 | 1.08 | – | –
8 | C=C[C@]1(C)C[C@@H](OC(=O)CSc2cncc(NC(=O)CNCCO)c2)[C@]2(C)[C@H](C)CC[C@]3(CCC(=O)[C@H]32)[C@@H](C)[C@@H]1O | 0.25 (≈ 0.425 µM) | 0.063 (≈ 0.107 µM) | 0.125 (≈ 0.213 µM) | 0.125 (≈ 0.213 µM) | 0.25 (≈ 0.425 µM) | 0.125 (≈ 0.213 µM) | – | – | – | – | – | – | – | – | – | – | – | – | –
9 | C=C[C@]1(C)C[C@@H](OC(=O)CS[C@@H]2CC[C@@H](N)C[C@H]2O)[C@]2(C)[C@H](C)CC[C@]3(CCC(=O)[C@H]32)[C@@H](C)[C@@H]1O [LEFAMULIN] | – | – | – | – | – | – | > 25 | > 25 | 4.4 | 122 | 3.8 | 27.6 | > 25 | > 25 | 275 | 4.43 | 4.65 | 3.08 | 0.031 (≈ 0.0611 µM)
10 | C=C[C@]1(C)C[C@@H](OC(=O)CS[C@@H]2C[C@H]3CC[C@@H](C2)N3C)[C@]2(C)[C@H](C)CC[C@]3(CCC(=O)[C@H]32)[C@@H](C)[C@@H]1O [RETAPAMULIN] | 0.063 (≈ 0.122 µM) | 0.063 (≈ 0.122 µM) | 0.125 (≈ 0.241 µM) | 0.063 (≈ 0.122 µM) | 0.063 (≈ 0.122 µM) | 0.063 (≈ 0.122 µM) | – | – | – | – | – | – | – | – | – | – | – | – | –
